# Structures can show the parent of a compound that is named as a salt.
# Assay: Inhibition of ASM (unknown origin)-mediated KRAS mislocalization from plasma membrane
smiles,measurement,value
CC(NCCC(c1ccccc1)c1ccccc1)c1ccccc1 (stereo unspecified) [FENDILINE HYDROCHLORIDE],IC50,5.6 µM
